We go through four compounds from ChEMBL document CHEMBL2034905, “Synthesis of benzimidazolyl-1,3,4-oxadiazol-2ylthio-N-phenyl (benzothiazolyl) acetamides as antibacterial, antifungal and antituberculosis agents” (Eur J Med Chem, 2012).

What is called MIC is the smallest concentration in the dilution series that meets the test's criterion for growth inhibition. For orientation: inhibition means the relative decrease from the control value, in per cent. As usually defined, the logP is the decadic logarithm of the partition coefficient of the neutral form, usually between octanol and water. Low values mean a more hydrophilic compound, high ones a more lipophilic compound.

The structures appear in SMILES notation. ≈ marks a conversion by molar mass, not a printed value.

Data set [1] has as its system Mycobacterium tuberculosis. Briefly: Antituberculosis activity against Mycobacterium tuberculosis H37Rv by BACTEC MGIT method. Format: functional.
Data set [2] concerns Mycobacterium tuberculosis. Briefly: Antituberculosis activity against Mycobacterium tuberculosis H37Rv at 6.25 ug/ml by BACTEC MGIT method. Type of data set: functional.
In data set [3] the test system is Mycobacterium tuberculosis. As to the kind of experiment: Antituberculosis activity against Mycobacterium tuberculosis H37Rv by Lowenstein-Jensen method. Type of data set: functional.
In data set [4] the test system is Mycobacterium tuberculosis. Briefly: Antituberculosis activity against Mycobacterium tuberculosis H37Rv at 6.25 ug/ml by Lowenstein-Jensen method. Type of data set: functional.
A short description of data set [5]: Lipophilicity, log P of the compound. Conditions: octanol/water. Format: physicochemical.
In data set [6] the test system is Staphylococcus aureus. As to the kind of experiment: Antibacterial activity against Staphylococcus aureus MTCC 96 at 100 ug/disc by paper disc diffusion technique. Format: functional. Conditions: read-out: IZ. On the technique in general: In agar diffusion tests the substance spreads into inoculated agar from a disc or well.
In data set [7] the test system is Bacillus cereus. Briefly: Antibacterial activity against Bacillus cereus MTCC 430 at 100 ug/disc by paper disc diffusion technique. Format: functional. The note with it: read-out: IZ.
Data set [8] has as its system Escherichia coli. As to the kind of experiment: Antibacterial activity against Escherichia coli MTCC 739 at 100 ug/disc by paper disc diffusion technique. Type of data set: functional. The note with it: read-out: IZ.
Data set [9] has as its system Pseudomonas aeruginosa. As to the kind of experiment: Antibacterial activity against Pseudomonas aeruginosa MTCC 741 at 100 ug/disc by paper disc diffusion technique. Format: functional. Conditions: read-out: IZ.
Data set [10] has as its system Klebsiella pneumoniae. Briefly: Antibacterial activity against Klebsiella pneumoniae MTCC 109 at 100 ug/disc by paper disc diffusion technique. Type of data set: functional. Conditions: read-out: IZ.
Data set [11] has as its system Salmonella typhi. Briefly: Antibacterial activity against Salmonella typhi MTCC 733 at 100 ug/disc by paper disc diffusion technique. Type of data set: functional, Salmonella enterica subsp. enterica serovar Typhi. The note with it: Salmonella enterica, read-out: IZ.
The subject of data set [12] is Proteus vulgaris. Briefly: Antibacterial activity against Proteus vulgaris MTCC 1771 at 100 ug/disc by paper disc diffusion technique. Format: functional. Conditions: read-out: IZ.
The test system of data set [13] is Shigella flexneri. Briefly: Antibacterial activity against Shigella flexneri MTCC 1457 at 100 ug/disc by paper disc diffusion technique. Format: functional. Conditions: read-out: IZ.
In data set [14] the test system is Staphylococcus aureus. Briefly: Antibacterial activity against Staphylococcus aureus MTCC 96 by agar streak dilution method. Type of data set: functional.
Data set [15] has as its system Bacillus cereus. Briefly: Antibacterial activity against Bacillus cereus MTCC 430 by agar streak dilution method. Format: functional.
Data set [16] deals with Escherichia coli. Briefly: Antibacterial activity against Escherichia coli MTCC 739 by agar streak dilution method. Type of data set: functional.
The test system of data set [17] is Pseudomonas aeruginosa. As to the kind of experiment: Antibacterial activity against Pseudomonas aeruginosa MTCC 741 by agar streak dilution method. Format: functional.
The subject of data set [18] is Klebsiella pneumoniae. Briefly: Antibacterial activity against Klebsiella pneumoniae MTCC 109 by agar streak dilution method. Format: functional.
For data set [19], the system named is Salmonella typhi. As to the kind of experiment: Antibacterial activity against Salmonella typhi MTCC 733 by agar streak dilution method. Format: functional, Salmonella enterica subsp. enterica serovar Typhi. Conditions: Salmonella enterica.
In data set [20] the test system is Proteus vulgaris. As to the kind of experiment: Antibacterial activity against Proteus vulgaris MTCC 1771 by agar streak dilution method. Format: functional.
Data set [21] has as its system Shigella flexneri. As to the kind of experiment: Antibacterial activity against Shigella flexneri MTCC 1457 by agar streak dilution method. Type of data set: functional.
For data set [22], the system named is Aspergillus niger. Briefly: Antifungal activity against Aspergillus niger MTCC 282 at 100 ug/disc by paper disc diffusion technique. Type of data set: functional. The note with it: read-out: IZ.
The test system of data set [23] is Aspergillus fumigatus. As to the kind of experiment: Antifungal activity against Aspergillus fumigatus MTCC 343 at 100 ug/disc by paper disc diffusion technique. Format: functional. Conditions: read-out: IZ.
The subject of data set [24] is Aspergillus clavatus. Briefly: Antifungal activity against Aspergillus clavatus MTCC 1323 at 100 ug/disc by paper disc diffusion technique. Type of data set: functional. The note with it: read-out: IZ.
Data set [25] relates to Candida albicans. As to the kind of experiment: Antifungal activity against Candida albicans MTCC 183 at 100 ug/disc by paper disc diffusion technique. Type of data set: functional. Conditions: read-out: IZ.
Data set [26] concerns Aspergillus niger. As to the kind of experiment: Antifungal activity against Aspergillus niger MTCC 282 by agar streak dilution method. Format: functional.
Data set [27] deals with Aspergillus fumigatus. As to the kind of experiment: Antifungal activity against Aspergillus fumigatus MTCC 343 by agar streak dilution method. Type of data set: functional.
Data set [28] concerns Aspergillus clavatus. As to the kind of experiment: Antifungal activity against Aspergillus clavatus MTCC 1323 by agar streak dilution method. Format: functional.
Data set [29] deals with Candida albicans. Briefly: Antifungal activity against Candida albicans MTCC 183 by agar streak dilution method. Format: functional.

In turn, `CC[C@@H](CO)NCCN[C@@H](CC)CO` [ETHAMBUTOL] displayed an MIC in data set [1] of 3.12 µg/mL (≈ 15.3 µM). In data set [2], this compound had an inhibition at 6.25 µg/mL of 99%.
`COc1ccc(NC(=O)CSc2nnc(Cn3cnc4ccccc43)o2)cc1`: the MIC in data set [3] came out at 6.25 µg/mL (≈ 15.8 µM); against Staphylococcus aureus [14], 100 µg/mL (≈ 253 µM); in the data set on Bacillus cereus [15], 50 µg/mL (≈ 126 µM); in the data set with Escherichia coli [16], 50 µg/mL (≈ 126 µM); against Pseudomonas aeruginosa [17], 50 µg/mL (≈ 126 µM); in the data set with Klebsiella pneumoniae [18] it was 100 µg/mL (≈ 253 µM). In addition, the MIC turned out to be 50 µg/mL (≈ 126 µM) against Salmonella typhi [19]; 25 µg/mL (≈ 63.2 µM) against Proteus vulgaris [20]; 50 µg/mL (≈ 126 µM) in the data set with Shigella flexneri [21]; 100 µg/mL (≈ 253 µM) against Aspergillus niger [26]; 100 µg/mL (≈ 253 µM) against Aspergillus fumigatus [27]; 100 µg/mL (≈ 253 µM) in the data set on Aspergillus clavatus [28]. Moreover, the values for the MIC (in the data set with Candida albicans [29]; in data set [1]) were 50 µg/mL (≈ 126 µM) and 6.25 µg/mL (≈ 15.8 µM), respectively. Moreover, the inhibition at 6.25 µg/mL in data set [4] and in data set [2] was 99% each time. Also, the lipophilicity (logP) in data set [5] is 2.37. In addition, the zone of inhibition at 100 µg/disc with Staphylococcus aureus [6] worked out at 13 mm; with Bacillus cereus [7], 18 mm; in the data set on Escherichia coli [8] it was 20 mm; with Pseudomonas aeruginosa [9], 21 mm; with Klebsiella pneumoniae [10] it was 11 mm; with Salmonella typhi [11] it was 20 mm. Moreover, the zone of inhibition at 100 µg/disc in the data set on Proteus vulgaris [12] was 21 mm; in the data set with Shigella flexneri [13], 19 mm; with Aspergillus niger [22], 16 mm; in the data set on Aspergillus fumigatus [23], 10 mm; with Aspergillus clavatus [24], less than 10 mm; in the data set on Candida albicans [25], 22 mm.
Compound `NC(=O)c1cnccn1` [PYRAZINAMIDE] came in with a minimum inhibitory concentration (MIC) in data set [1] of 6.25 µg/mL (≈ 50.8 µM). The compound further had an inhibition at 6.25 µg/mL in [2] of 99%.
Taken in the same sequence, the figures for `CO[C@H]1/C=C/O[C@@]2(C)Oc3c(C)c(O)c4c(O)c(c(/C=N/N5CCN(C)CC5)c(O)c4c3C2=O)NC(=O)/C(C)=C\C=C\[C@H](C)[C@H](O)[C@@H](C)[C@@H](O)[C@@H](C)[C@H](OC(C)=O)[C@@H]1C` [RIFAMPIN] were 0.25 µg/mL (≈ 0.304 µM) and 99%.
